Data published in patent US12358949B2, “Defensin fragments for use in therapy or prophylaxis” (priority 2019, dated 2025).
Values after ≈ are worked out from the molar mass of the structure shown. Like-named read-outs stand apart in the source and are kept apart here. Where a SMILES comes first, the peptide text is derived from it. [ ]: non-standard residue; d: D form.

What was measured:
[1] = test system: human cell line, red blood cells
Protocol: As positive control, cells were treated with 2% Triton X-100 while treatment with 0.01% acetic acid was used as negative control. […] Hemolytic activity was normalized to the hemolytic activity of 0.1% Triton X-100. The experiments were carried out in duplicates.
The activity was normalized to the positive control. As positive control, cells were treated with 2% Triton X-100 while treatment with 0.01% acetic acid was used as negative control.

A. baumannii DSM 30007 = format: cell-based
Protocol: (§1) The tested bacteria were incubated overnight in 1×TSB broth, centrifuged and washed with 10 mM sodium phosphate buffer containing 1% (w/v) TSB broth. 5×10^5 cfu/ml bacteria were mixed with different peptide concentrations in 10 mM sodium phosphate buffer with 1% (w/v) TSB (final volume 100 μl) and incubated for 2 hours at 37° C. Afterwards we added 100 μl 2×TSB broth and we measured the optical density at 600 nm (Spark 10M, Tecan, Austria). Bacterial growth was monitored for 12 hours, growing at 37° C. with shaking during the measurements each 30 minutes, except for Akkermansia muciniphila which were incubated at 37° C. in an anaerobic jar and growth was measured after 72 hours.

E. faecium DSM 20477 = format: cell-based
Protocol: as §1

P. aeruginosa XPAT1 = format: cell-based
Protocol: as §1

S. aureus USA300 = format: cell-based
Protocol: as §1

P. aeruginosa XPAT2 = format: cell-based
Protocol: as §1

A. baumannii 4-MRGN = format: cell-based
Protocol: as §1

P. aeruginosa ATCC 27853 = format: cell-based
Protocol: as §1

P. aeruginosa 4-MRGN = format: cell-based
Protocol: as §1

P. aeruginosa PAO1 = format: cell-based
Protocol: as §1

S. aureus ATCC 25923 = format: cell-based
Protocol: as §1

E. coli BW 25113 [2] = format: cell-based
Protocol: as §1

Y. enterocolitica = format: cell-based
Protocol: as §1

CaCo2/TC7 cells = test system: CaCo2/TC7 cells
Protocol: CaCo2/TC7 (X, X) and HT29 MTX […] […] Experiments were carried out in duplicates.

K. pneumoniae 3-MRGN = format: cell-based
Protocol: as §1

K. pneumoniae DSM 30104 = format: cell-based
Protocol: as §1

E. faecium 475747 = format: cell-based
Protocol: as §1

E. coli JM83 = format: cell-based
Protocol: as §1

human erythrocytes = assay: Hemolytic assay; format: cell-based
Protocol: Hemolytic activity was measured after an existing protocol^13. We obtained blood from two voluntary donors (sample collection had been previously approved by the Ethical Committee of the University Hospital of Tübingen, Germany) and 1 ml blood was washed with PBS two times. Afterwards we centrifuged the blood at 1000 g and performed a 1% (v/v) blood suspension in PBS. The blood suspension was incubated with different peptide concentrations (final concentration 0.5%) for one hour at 37° C. Then the samples were centrifuged at 1000 g for 10 minutes and the supernatant was collected and measured at 414 nm. […] These experiments were carried out in duplicates.

C. albicans 529L = format: cell-based
[3] = test system: S. enterica serovar enteriditis; assay: Turbidity broth assay (MIC); format: cell-based; settings: after 12 hours
Protocol: as §1

E. coli BW 25113 [4] = assay: Turbidity assay, MIC by optical density after 18 h; format: cell-based; parameters: key: XX High activity; X Low activity; No activity
Protocol: Bactericidal activity of the E. coli and S. aureus strains in the cell wall target experiments as well as the HD5 dimer experiments was assessed as described previously. Log-phase bacteria were collected by centrifugation (2500 rpm, 10 min, […]), washed twice with 10 mM sodium phosphate buffer containing 1% (w/v) TSB broth and the optical density at OD600 nm (OD600=0.1) was determined. Approximately 5×10^5 CFU/ml bacteria were incubated with serial peptide concentrations (1.17-150 μM) in a final volume of 100 μl in 10 mM sodium phosphate buffer containing 1% (w/v) TSB broth for 2 hours at 37° C. After incubation, 100 μl of 6% TSB (w/v) were added and absorbance was measured at 600 nm (Tecan, Switzerland) and monitored for 18 hours. Afterwards, 100 μl per well were plated on LB-plates to determine the numbers of viable bacteria microbiologically. Bactericidal activity is expressed as the LC99.9, the lowest concentration that killed ≥99.9% of bacteria. The experiment was repeated at least three times independently.

E. faecalis ATCC 19433 = assay: Turbidity assay, MIC by optical density after 18 h; format: cell-based
[5] = test system: S. enterica serovar Enteritidis; assay: Turbidity assay, MIC by optical density after 18 h; format: cell-based; parameters: key: XX High activity; X Low activity; No activity
[6] = K. pneumoniae 3-MRGN, after 12 hours
[7] = A. baumannii DSM30007, after 12 hours
[8] = K. pneumoniae DSM30104, after 12 hours
[9] = E. faecium DSM20477, after 12 hours
[10] = P. aeruginosa XPAT1, after 12 hours
[11] = S. aureus USA300, after 12 hours
[12] = P. aeruginosa XPAT2, after 12 hours
[13] = A. baumannii 4-MRGN, after 12 hours
[14] = P. aeruginosa ATCC 27853, after 12 hours
[15] = P. aeruginosa 4-MRGN, after 12 hours
[16] = P. aeruginosa PAO1, after 12 hours
[17] = S. aureus ATCC25923, after 12 hours
[18] = E. faecium 475747, after 12 hours
[19] = Y. enterocolitica, after 12 hours

Protocol for HT29 MTX E29 cells: CaCo2/TC7 (X, X) and HT29 MTX [MUT] (X, X) were seed in a 96 well plate in 90 μl media (1500 cells/well) and incubated at 37° C. for 24 hours. Afterwards peptide treatment with different concentrations started (volume of 10 μl solved in 0.01% acetic acid) and cells were incubated for 96 hours. Untreated and 1% Triton-X treated cells were used as controls. After the incubation we added 100 μl of CellTiter Glo2.0 solution and started our measurement protocol. The measurement was carried out in a Spark 10M (Tecan), starting with 12 minutes continuously shaking followed by the luminescence measurement with an integration time from 1 second per well. Experiments were carried out in duplicates.

Molecule	MIC (A. baumannii DSM 30007; DSM 30007, 12 h)	MIC (E. faecium DSM 20477; DSM 20477, 12 h)	MIC (P. aeruginosa XPAT1; XPAT1, 12 h)	MIC (S. aureus USA300; USA300, 12 h)	MIC (P. aeruginosa XPAT2; XPAT2, 12 h)	MIC (A. baumannii 4-MRGN; 4-MRGN, 12 h)	MIC (P. aeruginosa ATCC 27853; ATCC 27853, 12 h)	MIC (P. aeruginosa 4-MRGN; 4-MRGN, 12 h)	MIC (P. aeruginosa PAO1; PAO1, 12 h)	MIC (S. aureus ATCC 25923; ATCC 25923, 12 h)	MIC (Y. enterocolitica; 12 h)	MIC (K. pneumoniae 3-MRGN; [6])	MIC (A. baumannii DSM 30007; [7])	MIC (K. pneumoniae DSM 30104; [8])	MIC (E. faecium DSM 20477; [9])	MIC (P. aeruginosa XPAT1; [10])	MIC (S. aureus USA300; [11])	MIC (P. aeruginosa XPAT2; [12])	MIC (A. baumannii 4-MRGN; [13])	MIC (P. aeruginosa ATCC 27853; [14])	also measured
C[C@H](N)C(=O)N[C@H](C(=O)N[C@@H](CS)C(=O)N[C@@H](Cc1ccc(O)cc1)C(=O)N[C@@H](CS)C(=O)N[C@@H](CCCNC(=N)N)C(=O)N[C@H](C(=O)NCC(=O)N[C@@H](CCCNC(=N)N)C(=O)O)[C@@H](C)O)[C@@H](C)O [HD-51-9] (H-ATCYCRTGR-OH; N-terminus and C-terminus assumed)	100 µM	25 µM	>100 µM	50 µM	>100 µM	25 µM	50 µM	100 µM	50 µM	50 µM	50 to 100 µM										toxic effect in in vitro experiments [1]: no toxicity was observed; MIC (E. coli BW 25113 [2]; BW 25113, 12 h): 25 µM (≈ 25.8 µg/mL)
CC(=O)N[C@@H](C(=O)N[C@H](CS)C(=O)N[C@H](CO)C(=O)N[C@H](CS)C(=O)N[C@H](CCCNC(=N)N)C(=O)N[C@H](CC(C)C)C(=O)N[C@@H](C(=O)N[C@H](Cc1ccccc1)C(=O)N[C@H](CS)C(=O)N[C@H](CCCNC(=N)N)C(=O)N[C@H](CCCNC(=N)N)C(N)=O)C(C)C)C(C)C [HNP-41-11mod, Ac-vcscrlvfcrr-NH2] (Ac-[dV][dC][dS][dC][dR][dL][dV][dF][dC][dR][dR]-NH2)	6.25 µM	6.25 µM	12.5 µM	12.5 µM	12.5 µM	6.25 µM	6.25 µM	6.25 µM	12.5 µM	3.125 µM	6.25 µM	8.6 µg/mL	8.6 µg/mL	8.6 µg/mL	8.6 µg/mL	17.3 µg/mL	17.3 µg/mL	17.3 µg/mL	8.6 µg/mL	8.6 µg/mL	cytotoxic effects compared to CaCo2/TC7 (HT29 MTX E29 cells): more susceptible; cytotoxic effects (CaCo2/TC7 cells): minor cytotoxic effects; MIC (K. pneumoniae 3-MRGN; 3-MRGN, 12 h): 6.25 µM; MIC (K. pneumoniae DSM 30104; DSM 30104, 12 h): 6.25 µM; MIC (P. aeruginosa 4-MRGN; [15]): 8.6 µg/mL; MIC (P. aeruginosa PAO1; [16]): 17.3 µg/mL; MIC (S. aureus ATCC 25923; [17]): 4.3 µg/mL; MIC (E. faecium 475747; 475747, 12 h): 3.125 µM; MIC (E. faecium 475747; [18]): 4.3 µg/mL; MIC (Y. enterocolitica; [19]): 8.6 µg/mL; MIC (E. coli JM83; E. coli JM83, after 12 hours): 8.6 µg/mL; MIC (E. coli JM83; JM83, 12 h): 6.25 µM; hemolytic toxicity (human erythrocytes; at ≤18.75 μM): negligible toxicity; hemolytic activity, in words (human erythrocytes; compared to Melittin): low hemolytic activity; MIC (C. albicans 529L; 529L, 24 h): 25 µM; MIC (C. albicans 529L; C. albicans 529L, after 24 hours (Table 5)): 34.6 µg/mL
Ac-atcycrtGr-NH2 [HD-51-9mod]												>>>	25 µM	>>>	6.25 µM	>100 µM	12.5 µM	100 µM	12.5 µM	12.5 µM	MIC [3]: >>>; MIC (P. aeruginosa 4-MRGN; [15]): 50 µM; MIC (P. aeruginosa PAO1; [16]): 50 µM; MIC (S. aureus ATCC 25923; [17]): 12.5 µM; MIC (E. faecium 475747; [18]): 3.125 µM; MIC (E. coli BW 25113 [2]; E. coli (BW 25113 per table title), after 12 hours): 25 µM; MIC (Y. enterocolitica; [19]): 50 to 100 µM; MIC (C. albicans 529L; C. albicans 529L, after 12 hours (Table 4)): >100 µM
RGTRCYCTA [HD-51-9rev]																					antimicrobial activity (MIC), activity class (E. coli BW 25113 [4]): XX; antimicrobial activity, in words (E. faecalis ATCC 19433): complete dissolving of bactericidal effects; antimicrobial activity (MIC), activity class [5]: X
